Data taken from the NIST ThermoML archive (doi:10.1021/je800026p).
± gives the expanded uncertainty stated by the source.

Settings: 101.33 kPa, Liquid; for speed of sound: Sing-around technique in a fixed-path interferometer; for mass density: Vibrating tube method

| speed of sound (288.15 K) [m/s] | mass density (288.15 K) [kg/m3] | speed of sound (293.15 K) [m/s] | mass density (293.15 K) [kg/m3] | speed of sound (298.15 K) [m/s] | mass density (298.15 K) [kg/m3] | speed of sound (303.15 K) [m/s] | mass density (303.15 K) [kg/m3] | speed of sound (308.15 K) [m/s] | mass density (308.15 K) [kg/m3] | SMILES |
| --- | --- | --- | --- | --- | --- | --- | --- | --- | --- | --- |
| 1296.1 ± 2.2 | 742.865 ± 0.58 | 1273.6 ± 2.2 | 738.096 ± 0.58 | 1250 ± 2.2 | 733.301 ± 0.57 | 1228.9 ± 2.2 | 728.477 ± 0.57 | 1205.7 ± 2.2 | 723.625 ± 0.56 | CCCCN [1-butanamine] |
| 1405.2 ± 2.2 | 936.901 ± 0.77 | 1388.1 ± 2.2 | 932.917 ± 0.76 | 1371.1 ± 2.2 | 928.926 ± 0.76 | 1354.3 ± 2.2 | 924.931 ± 0.75 | 1337.7 ± 2.2 | 920.933 ± 0.75 | CCCCCCOCCOCCO [2-(2-hexyloxyethoxy)ethanol] |
| 1289.2 ± 2.2 | 766.115 ± 2.1 | 1269.5 ± 2.2 | 762.022 ± 2.1 | 1246.7 ± 2.2 | 757.784 ± 2.1 | 1226.7 ± 2.2 | 752.284 ± 2 | 1207 ± 2.2 | 748.17 ± 2 | CCCCNCCCC [dibutylamine] |
| 1285 ± 2.2 | 781.336 ± 0.61 | 1266.4 ± 2.2 | 777.632 ± 0.61 | 1247.6 ± 2.2 | 773.913 ± 0.6 | 1229 ± 2.2 | 770.183 ± 0.6 | 1210.4 ± 2.2 | 766.44 ± 0.6 | CCCCN(CCCC)CCCC [tributylamine] |
